ChEMBL document CHEMBL6177968, “Development of sulfamoylbenzamide-based capsid assembly modulators for hepatitis B virus capsid assembly” (Eur J Med Chem, 2025)
pEC50, pIC50: −log10 of the molar value.

What was measured:
Hepatitis B virus [1] = test: Antiviral activity against HBV in human HepG2.2.15 cells assessed as reduction in viral replication incubated for 5 days by real-time PCR analysis; format: functional, organism-based; conditions: HepG2.2.15, 120 h
[2] = Cytotoxicity in human HepG2.2.15 cells assessed as reduction in cell viability; format: toxicity, cell-based, HepG2 2.2.15
[3] = Metabolic stability in mouse liver microsomes assessed as compound remaining measured after 30 mins; format: ADME, Microsome; conditions: read-out: Stability
[4] = Stability in mouse plasma assessed as compound remaining incubated for 4 hrs; format: ADME, cell-free; conditions: read-out: Stability
[5] = Stability in human plasma assessed as compound remaining incubated for 4 hrs; format: ADME, cell-free; conditions: read-out: Stability
[6] = Plasma protein binding in mouse; format: ADME, cell-free; conditions: read-out: PPB (converted)
[7] = Plasma protein binding in human; format: ADME, cell-free; conditions: read-out: PPB (converted)
[8] = Cytotoxicity in mouse NIH3T3 cells; format: toxicity, cell-based
[9] = Cytotoxicity in CHO-K1 cells; format: toxicity, cell-based, Cricetulus griseus; conditions: Chinese hamster
Cytochrome P450 1A2 = target: T1, Cytochrome P450 1A2 (Homo sapiens, UniProt P05177); test: Inhibition of CYP1A2 in human liver microsome; format: ADME, microsomes
T1 sequence (P05177 whole entry): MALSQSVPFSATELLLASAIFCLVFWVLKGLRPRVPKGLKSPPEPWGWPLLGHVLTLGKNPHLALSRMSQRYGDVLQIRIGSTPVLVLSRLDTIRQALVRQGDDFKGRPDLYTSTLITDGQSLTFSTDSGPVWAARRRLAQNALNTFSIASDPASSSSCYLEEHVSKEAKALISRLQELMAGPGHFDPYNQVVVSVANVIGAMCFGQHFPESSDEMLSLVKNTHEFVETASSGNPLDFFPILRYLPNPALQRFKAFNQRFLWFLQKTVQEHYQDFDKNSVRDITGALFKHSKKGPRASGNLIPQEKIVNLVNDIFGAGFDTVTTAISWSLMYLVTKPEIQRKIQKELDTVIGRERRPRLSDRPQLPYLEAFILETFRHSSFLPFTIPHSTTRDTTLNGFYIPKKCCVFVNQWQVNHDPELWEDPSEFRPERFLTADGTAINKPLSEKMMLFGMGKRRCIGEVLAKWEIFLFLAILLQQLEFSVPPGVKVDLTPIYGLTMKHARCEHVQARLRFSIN

Cytochrome P450 2C9 = Cytochrome P450 2C9 (Homo sapiens, UniProt P11712); test: Inhibition of CYP2C9 in human liver microsome; format: ADME, microsomes
Cytochrome P450 2C19 = Cytochrome P450 2C19 (Homo sapiens, UniProt P33261); test: Inhibition of CYP2C19 in human liver microsome; format: ADME, microsomes
Cytochrome P450 2D6 = Cytochrome P450 2D6 (Homo sapiens, UniProt P10635); test: Inhibition of CYP2D6 in human liver microsome; format: ADME, microsomes
Cytochrome P450 3A4 = Cytochrome P450 3A4 (Homo sapiens, UniProt P08684); test: Inhibition of CYP3A4 in human liver microsome; format: ADME, microsomes
Hepatitis B virus [10] = test: Antiviral activity against HBV in human HepG2 cells expressing NTCP assessed as reduction in viral replication; format: functional, organism-based
Hepatitis B virus [11] = test: Antiviral activity against HBV in human HepaRG cells assessed as reduction in viral replication; format: functional, organism-based
[12] = Cytotoxicity in human HepG2-hNTCP cells assessed as reduction in cell viability; format: toxicity, cell-based
[13] = Cytotoxicity in human HepaRG cells assessed as reduction in cell viability; format: toxicity, cell-based
[14] = Selectivity index, ratio of CC50 for cytotoxicity in human HepaRG cells assessed as reduction in cell viability to EC50 for antiviral activity against HBV in human HepaRG cells assessed as reduction in viral replication; format: toxicity, cell-based; conditions: read-out: Ratio CC50/EC50
[15] = Half life in male mouse at 5 mg/kg, iv; format: ADME, organism-based; conditions: in vivo
[16] = AUClast in male mouse at 5 mg/kg, iv; format: ADME, organism-based; conditions: in vivo
[17] = AUC (0 to infinity) in male mouse at 5 mg/kg, iv; format: ADME, organism-based; conditions: in vivo
[18] = Volume of distribution at steady state in male mouse at 5 mg/kg, iv; format: ADME, organism-based; conditions: in vivo, read-out: Vdss
[19] = AUClast in male mouse at 20 mg/kg, iv; format: ADME, organism-based; conditions: in vivo
[20] = AUC (0 to infinity) in male mouse at 20 mg/kg, iv; format: ADME, organism-based; conditions: in vivo
[21] = Clearance in male mouse at 20 mg/kg, iv; format: ADME, organism-based; conditions: in vivo
[22] = Volume of distribution at steady state in male mouse at 20 mg/kg, iv; format: ADME, organism-based; conditions: in vivo, read-out: Vdss
[23] = Tmax in male mouse at 5 mg/kg, po; format: ADME, organism-based; conditions: in vivo
[24] = Cmax in male mouse at 5 mg/kg, po; format: ADME, organism-based; conditions: in vivo
[25] = Half life in male mouse at 5 mg/kg, po; format: ADME, organism-based; conditions: in vivo
[26] = AUClast in male mouse at 5 mg/kg, po; format: ADME, organism-based; conditions: in vivo
[27] = AUC (0 to infinity) in male mouse at 5 mg/kg, po; format: ADME, organism-based; conditions: in vivo
[28] = Tmax in male mouse at 20 mg/kg, po; format: ADME, organism-based; conditions: in vivo
[29] = Half life in male mouse at 20 mg/kg, po; format: ADME, organism-based; conditions: in vivo
[30] = AUClast in male mouse at 20 mg/kg, po; format: ADME, organism-based; conditions: in vivo
[31] = AUC (0 to infinity) in male mouse at 20 mg/kg, po; format: ADME, organism-based; conditions: in vivo
[32] = Oral bioavailability in male mouse at 20 mg/kg; format: ADME, organism-based; conditions: in vivo
Hepatitis B virus [33] = test: Antiviral activity against HBV infected in human HepG2 cells expressing NTCP assessed as viral DNA replication at 1 uM incubated for 6 days by Southern blot analysis (reference value: 100 %); format: functional; conditions: time 6 day
Hepatitis B virus [34] = test: Antiviral activity against HBV infected in human HepG2 cells expressing NTCP assessed as capsid level at 1 uM incubated for 6 days by Western blot analysis (reference value: 100 %); format: functional; conditions: time 6 day
Hepatitis B virus [35] = test: Antiviral activity against HBV infected in human HepG2 cells expressing NTCP assessed as capsid associated HBV DNA level at 1 uM incubated for 6 days by Western blot analysis (reference value: 100 %); format: functional; conditions: time 6 day
HepG2 [36] = test: Effect on viral rcDNA level in human HepG2 cells expressing NTCP infected with HBV at 1 uM incubated for 6 days by Southern blot analysis; format: functional, cell-based; conditions: time 6.0 day
HepG2 [37] = test: Effect on viral dslDNA level in human HepG2 cells expressing NTCP infected with HBV at 1 uM incubated for 6 days by Southern blot analysis; format: functional, cell-based; conditions: time 6.0 day
HepG2 [38] = test: Effect on viral ssDNA level in human HepG2 cells expressing NTCP cells infected with HBV at 1 uM incubated for 6 days by Southern blot analysis; format: functional, cell-based; conditions: time 6.0 day
Hepatitis B virus [39] = test: Antiviral activity against HBV infected in human HepG2 cells expressing NTCP assessed as fold increase in intracellular capsid level at 1 uM incubated for 6 days by Western blot analysis relative to control; format: functional; conditions: time 6 day
[40] = target: Core antigen (Hepatitis B virus) (UniProt Q03732); test: Binding affinity to HBV core protein dimers extracted from Escherichia coli assessed as retention volume at peak of capsid assembly by size exclusion chromatography (reference value: 8.63 mL)
Hepatitis B virus [41] = test: Antiviral activity against HBV infected in human HepG2 cells expressing NTCP assessed as intracellular HBc level at 1 uM incubated for 6 days by Western blot analysis (reference value: 100 %); format: functional; conditions: time 6 day

Chain of Cytochrome P450 2D6 (P10635 whole entry): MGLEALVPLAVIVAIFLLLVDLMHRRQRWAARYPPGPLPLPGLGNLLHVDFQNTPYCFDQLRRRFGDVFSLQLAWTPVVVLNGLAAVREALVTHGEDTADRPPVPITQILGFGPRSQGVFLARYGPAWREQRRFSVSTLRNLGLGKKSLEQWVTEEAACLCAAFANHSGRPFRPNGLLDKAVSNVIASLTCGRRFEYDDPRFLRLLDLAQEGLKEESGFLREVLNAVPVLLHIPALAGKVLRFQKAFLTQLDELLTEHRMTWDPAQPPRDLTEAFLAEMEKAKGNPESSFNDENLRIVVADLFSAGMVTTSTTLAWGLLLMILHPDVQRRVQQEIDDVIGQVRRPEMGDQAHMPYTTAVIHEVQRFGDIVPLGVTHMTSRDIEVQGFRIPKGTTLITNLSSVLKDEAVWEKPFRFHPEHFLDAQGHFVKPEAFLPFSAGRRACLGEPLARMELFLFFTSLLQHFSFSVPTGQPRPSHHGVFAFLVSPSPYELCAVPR
Chain of Cytochrome P450 2C9 (P11712 whole entry): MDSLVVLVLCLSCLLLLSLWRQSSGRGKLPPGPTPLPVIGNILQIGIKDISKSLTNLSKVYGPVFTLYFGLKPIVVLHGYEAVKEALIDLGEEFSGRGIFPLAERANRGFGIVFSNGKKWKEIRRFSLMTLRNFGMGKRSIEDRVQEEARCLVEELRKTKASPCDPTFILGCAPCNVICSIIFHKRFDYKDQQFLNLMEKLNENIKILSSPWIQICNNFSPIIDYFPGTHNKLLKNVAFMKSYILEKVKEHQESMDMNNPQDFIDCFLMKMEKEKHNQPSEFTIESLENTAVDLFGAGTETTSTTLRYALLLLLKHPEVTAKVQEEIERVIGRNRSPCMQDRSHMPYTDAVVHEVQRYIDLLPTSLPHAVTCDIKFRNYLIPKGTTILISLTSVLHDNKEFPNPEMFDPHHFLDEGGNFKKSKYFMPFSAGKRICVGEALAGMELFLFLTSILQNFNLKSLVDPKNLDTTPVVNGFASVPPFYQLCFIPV
Chain of Cytochrome P450 3A4 (P08684 whole entry): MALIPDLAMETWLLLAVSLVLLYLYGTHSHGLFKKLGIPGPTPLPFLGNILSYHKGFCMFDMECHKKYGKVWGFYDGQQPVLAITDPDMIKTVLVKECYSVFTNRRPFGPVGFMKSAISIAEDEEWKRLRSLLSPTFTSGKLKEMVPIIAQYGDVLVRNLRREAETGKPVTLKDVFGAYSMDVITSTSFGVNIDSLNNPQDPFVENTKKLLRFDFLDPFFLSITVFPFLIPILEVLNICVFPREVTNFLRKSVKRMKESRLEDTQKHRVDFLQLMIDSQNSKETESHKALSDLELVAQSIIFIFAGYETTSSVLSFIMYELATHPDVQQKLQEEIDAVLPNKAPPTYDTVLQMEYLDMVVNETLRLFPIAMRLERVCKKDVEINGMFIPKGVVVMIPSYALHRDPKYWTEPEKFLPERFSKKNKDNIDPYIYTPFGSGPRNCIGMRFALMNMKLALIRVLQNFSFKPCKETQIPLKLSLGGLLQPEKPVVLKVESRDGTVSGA
Chain of Cytochrome P450 2C19 (P33261 whole entry): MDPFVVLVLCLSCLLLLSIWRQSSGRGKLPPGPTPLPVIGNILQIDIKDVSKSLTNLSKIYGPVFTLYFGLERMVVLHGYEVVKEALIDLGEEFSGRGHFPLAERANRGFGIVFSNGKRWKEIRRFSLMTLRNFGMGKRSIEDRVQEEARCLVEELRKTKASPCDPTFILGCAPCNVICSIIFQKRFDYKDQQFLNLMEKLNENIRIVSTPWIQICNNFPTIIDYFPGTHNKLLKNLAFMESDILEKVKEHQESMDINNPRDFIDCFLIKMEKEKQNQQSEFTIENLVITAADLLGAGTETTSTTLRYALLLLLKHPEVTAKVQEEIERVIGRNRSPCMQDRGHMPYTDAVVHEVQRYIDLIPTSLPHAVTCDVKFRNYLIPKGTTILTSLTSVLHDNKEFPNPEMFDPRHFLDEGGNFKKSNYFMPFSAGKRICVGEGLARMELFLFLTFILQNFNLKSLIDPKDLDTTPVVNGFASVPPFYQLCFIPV
Chain of Core antigen (Hepatitis B virus) (Q03732 as listed by the source): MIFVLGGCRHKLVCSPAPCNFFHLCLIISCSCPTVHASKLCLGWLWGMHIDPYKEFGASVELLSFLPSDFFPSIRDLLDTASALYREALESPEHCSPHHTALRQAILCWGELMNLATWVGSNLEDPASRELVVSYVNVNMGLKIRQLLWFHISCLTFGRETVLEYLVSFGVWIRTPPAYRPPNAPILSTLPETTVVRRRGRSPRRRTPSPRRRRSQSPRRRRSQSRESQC

## Nc1cc(F)c(S(=O)(=O)NC2COC2)cc1C(=O)Nc1ccc(F)c(C(F)F)c1
Hepatitis B virus [1]
  pEC50: 7.30
[2]
  CC50: > 900 µM
[3]
  remaining at 0.5 h: 56.8%
[4]
  remaining at 4 h: 94.5%
[5]
  remaining at 4 h: 94%
[6]
  fraction unbound: 0.143
[7]
  fraction unbound: 0.128
[8]
  pIC50: < 4.00
[9]
  pIC50: < 4.00
Cytochrome P450 1A2
  pIC50: < 4.00
Cytochrome P450 2C9
  pIC50: < 4.00
Cytochrome P450 2C19
  pIC50: < 4.00
Cytochrome P450 2D6
  pIC50: < 4.00
Cytochrome P450 3A4
  pIC50: < 4.00
Hepatitis B virus [10]
  pEC50: 7.70
Hepatitis B virus [11]
  pEC50: 7.00
[12]
  CC50: 63.2 µM
[13]
  CC50: > 100 µM
[14]
  selectivity ratio: > 100
[15]
  half-life: 533 min
[16]
  AUC(0-t): 850 ng·h/mL
[17]
  AUC(0-inf): 900 ng·h/mL
[18]
  Vd: 29.1 L/kg
[19]
  AUC(0-t): 4610 ng·h/mL
[20]
  AUC(0-inf): 5460 ng·h/mL
[21]
  clearance: 65.5 mL/min/kg
[22]
  Vd: 46.5 L/kg
[23]
  Tmax: 15 min
[24]
  Cmax: 540 ng/mL
[25]
  half-life: 55.2 min
[26]
  AUC(0-t): 560 ng·h/mL
[27]
  AUC(0-inf): 570 ng·h/mL
[28]
  Tmax: 25.2 min
[29]
  half-life: 52.2 min
[30]
  AUC(0-t): 270 ng·h/mL
[31]
  AUC(0-inf): 280 ng·h/mL
[32]
  bioavailability: 5.89%
Hepatitis B virus [33]
  Activity: 6%
Hepatitis B virus [34]
  Activity: 205%
Hepatitis B virus [35]
  Activity: 14%
HepG2 [36]
  Activity: No effect
HepG2 [37]
  Activity: No effect
HepG2 [38]
  Activity: No effect
Hepatitis B virus [39]
  fold change (FC): ~2
[40]
  Activity: 8.62 mL
Hepatitis B virus [41]
  Activity: 113%
